Laboratory results as given in PubChem BioAssay (NCI).
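In this assay, cells in 96-well plates receive the compound at five concentrations for 48 hours. Endpoints are linearly interpolated between the surrounding concentrations. The concentration for 50% growth inhibition is given as GI50. TGI denotes the concentration required for complete inhibition of growth.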

Legend:
Experiment in all cases: NCI tumour cell line growth inhibition, 48 h
[1] = test system: SF-539 CNS
[2] = test system: M14 melanoma
[3] = test system: MOLT-4 leukemia
[4] = test system: HOP-92 NSCLC
[5] = test system: NCI-H226 lung
[6] = test system: SK-MEL-5 melanoma
[7] = test system: HCT-116 colon
[8] = test system: MDA-MB-231 breast
[9] = test system: ACHN renal
[10] = test system: HL-60(TB) leukemia

SMILES: Cc1ccc(S(=O)(=O)NC(CCCCN)C(=O)CCl)cc1 (stereo not drawn)
- GI50 [1]: 22.3 µM
- TGI [1]: 53.6 µM
- GI50 [2]: > 100 µM
- TGI [2]: > 100 µM
- GI50 [3]: 86.6 µM
- TGI [3]: > 100 µM
- GI50 [4]: 20.2 µM
- TGI [4]: 67.1 µM
- GI50 [5]: 79.9 µM
- TGI [5]: > 100 µM
- GI50 [6]: 47.8 µM
- TGI [6]: > 100 µM
- GI50 [7]: 90.7 µM
- TGI [7]: > 100 µM
- GI50 [8]: > 100 µM
- TGI [8]: > 100 µM
- GI50 [9]: 92.7 µM
- TGI [9]: > 100 µM

SMILES: CCCCCCCCCCCCOC1C(C(COC2OC(C(O)CO)C3OC(C)(C)OC23)OC(=O)Nc2ccc([N+](=O)[O-])cc2)OC2OC(C)(C)OC21 (stereo not drawn)
- GI50 [10]: 3.36 µM
- TGI [10]: 8.92 µM
- GI50 [1]: 4.15 µM
- TGI [1]: 14.7 µM
- GI50 [2]: 1.81 µM
- TGI [2]: 3.44 µM
- GI50 [4]: 3.82 µM
- TGI [4]: 14.7 µM
- GI50 [5]: 2.98 µM
- TGI [5]: 11.2 µM
- GI50 [6]: 1.71 µM
- TGI [6]: 3.11 µM
- GI50 [7]: 1.77 µM
- TGI [7]: 3.45 µM
- GI50 [8]: 2.6 µM
- TGI [8]: 7.2 µM
- GI50 [9]: 3.4 µM
- TGI [9]: 10.6 µM

SMILES: CCOc1ccccc1Nc1nc(C)c(C(=O)CC(=O)C(=O)Nc2ccccc2)s1
- TGI [10]: 58.1 µM
- TGI [1]: > 100 µM
- TGI [2]: > 100 µM
- TGI [3]: 78.3 µM
- TGI [4]: > 100 µM
- TGI [5]: > 100 µM
- TGI [6]: > 100 µM
- TGI [7]: > 100 µM
- TGI [9]: > 100 µM

SMILES: CC(C)(O)C1CC(=O)C(C)(C2C(O)CC3(C)C4CC=C5C(CCC(O)C5(C)C)C4(C)C(=O)CC23C)O1 (stereo not drawn)
- TGI [1]: > 100 µM
- TGI [2]: > 100 µM
- TGI [3]: > 100 µM
- TGI [4]: > 100 µM
- TGI [5]: > 100 µM
- TGI [6]: > 100 µM
- TGI [7]: > 100 µM
- TGI [8]: > 100 µM
- TGI [9]: > 100 µM

SMILES: CCCCCC1C2C(=O)NC(=O)C1C(=O)NC2=O (stereo not drawn)
- TGI [10]: > 100 µM
- TGI [1]: > 100 µM
- TGI [2]: > 100 µM
- TGI [3]: > 100 µM
- TGI [4]: > 100 µM
- TGI [5]: > 100 µM
- TGI [6]: > 100 µM
- TGI [9]: > 100 µM

SMILES: Cc1cn2cc(-c3ccncc3)nc2s1
- TGI [10]: > 41.6 µM
- TGI [1]: > 100 µM
- TGI [2]: > 100 µM
- TGI [3]: > 100 µM
- TGI [4]: > 100 µM
- TGI [5]: > 100 µM
- TGI [6]: > 100 µM
- TGI [7]: > 100 µM
- TGI [9]: > 100 µM

SMILES: CC(=O)/C=C\C(=O)NNS(=O)(=O)c1ccc(C)cc1
- TGI [10]: > 100 µM
- TGI [1]: > 100 µM
- TGI [2]: > 100 µM
- TGI [3]: > 100 µM
- TGI [4]: > 100 µM
- TGI [5]: > 100 µM
- TGI [6]: > 100 µM
- TGI [7]: > 100 µM
- TGI [9]: > 100 µM

SMILES: COc1ccc2nccc(C3OC(=O)N4CCC(=O)CC34)c2c1 (stereo not drawn)
- TGI [10]: > 100 µM
- TGI [1]: > 100 µM
- TGI [2]: > 100 µM
- TGI [3]: > 100 µM
- TGI [4]: > 100 µM
- TGI [5]: > 100 µM
- TGI [6]: > 100 µM
- TGI [7]: > 100 µM
- TGI [9]: > 100 µM

SMILES: O=[N+]([O-])c1ccc(-c2ccc(C3=Nn4c(nnc4-c4ccc(Cl)cc4)SC3)o2)cc1
- TGI [10]: > 100 µM
- TGI [1]: > 100 µM
- TGI [2]: > 100 µM
- TGI [3]: > 100 µM
- TGI [4]: > 75.8 µM
- TGI [5]: > 100 µM
- TGI [6]: > 100 µM
- TGI [7]: > 100 µM
- TGI [9]: > 100 µM

SMILES: Cc1ccc(S(=O)(=O)c2ccccn2)cc1
- TGI [10]: > 100 µM
- TGI [1]: > 100 µM
- TGI [2]: > 100 µM
- TGI [3]: > 100 µM
- TGI [4]: > 100 µM
- TGI [5]: > 100 µM
- TGI [6]: > 100 µM
- TGI [7]: > 100 µM
- TGI [9]: > 100 µM

SMILES: Cc1nn(-c2ccccc2)c2ncc3c(c12)C(=O)N(Cc1ccccc1)C3=O
- GI50 [10]: > 100 µM
- TGI [10]: > 100 µM
- GI50 [1]: 12.2 µM
- TGI [1]: 56.7 µM
- GI50 [2]: 4.98 µM
- TGI [2]: > 100 µM
- GI50 [3]: 6.77 µM
- TGI [3]: 40.3 µM
- GI50 [5]: 3.46 µM
- TGI [5]: 13 µM
- GI50 [6]: > 100 µM
- TGI [6]: > 100 µM
- GI50 [7]: 1.21 µM
- TGI [7]: 6.67 µM
- GI50 [8]: 5.11 µM
- TGI [8]: 50.2 µM
- GI50 [9]: 3.57 µM
- TGI [9]: 13.7 µM

SMILES: CN(C)c1ccc(/C=C/C(=O)c2ccc(Nc3nc(Nc4ccc(F)cc4)nc(Nc4ccc(Cl)cc4)n3)cc2)cc1
- GI50 [10]: 1.75 µM
- TGI [10]: 5.34 µM
- GI50 [1]: 9.58 µM
- TGI [1]: 27.2 µM
- GI50 [2]: 4.29 µM
- TGI [2]: 19.1 µM
- GI50 [3]: 1.55 µM
- TGI [3]: 5.23 µM
- GI50 [5]: 15.6 µM
- TGI [5]: > 100 µM
- GI50 [6]: 2 µM
- TGI [6]: 10.9 µM
- GI50 [7]: 3.3 µM
- TGI [7]: 15.5 µM
- GI50 [8]: 9.56 µM
- TGI [8]: 73 µM
- GI50 [9]: 6.13 µM
- TGI [9]: > 100 µM

SMILES: Oc1c(Br)cc(Br)c2cccnc12
- GI50 [10]: 2.28 µM
- TGI [10]: 5.13 µM
- GI50 [1]: 3.17 µM
- TGI [1]: 7.63 µM
- GI50 [2]: 2.14 µM
- TGI [2]: 5.11 µM
- GI50 [3]: 3 µM
- TGI [3]: 8.49 µM
- GI50 [5]: 5.09 µM
- TGI [5]: 30.2 µM
- GI50 [6]: 2.09 µM
- TGI [6]: 5.19 µM
- GI50 [7]: 3.22 µM
- TGI [7]: 10.6 µM
- GI50 [8]: 4.43 µM
- TGI [8]: 28.9 µM
- GI50 [9]: 3.48 µM
- TGI [9]: 18.6 µM

SMILES: Cc1ccc(SCN2CCCCC2)cc1 (tested in a mixture with another compound)
- TGI [10]: 4.98 µM
- TGI [2]: 37.3 µM
- TGI [3]: 16.2 µM
- TGI [4]: 31 µM
- TGI [5]: 36.7 µM
- TGI [6]: 12.5 µM
- TGI [7]: 23.4 µM
- TGI [8]: 27.7 µM
- TGI [9]: 28.7 µM

SMILES: COC(=O)[C@@H](C)C[C@H](Cc1ccccc1)NC(=O)c1cccc([C@@H](C[C@H](C(C)C)N(C)C(=O)[C@@H](NC(=O)[C@H]2CCCCN2C)C(C)C)OC(C)=O)n1
- GI50 [10]: < 0.00167 µM
- TGI [10]: 0.00181 µM
- GI50 [1]: 0.00275 µM
- TGI [1]: 0.00795 µM
- GI50 [2]: < 0.00167 µM
- TGI [2]: 0.224 µM
- GI50 [3]: 0.00815 µM
- TGI [3]: > 16.7 µM
- GI50 [4]: < 0.00167 µM
- TGI [4]: 0.114 µM
- GI50 [6]: < 0.00167 µM
- TGI [6]: 0.0252 µM
- GI50 [7]: < 0.00167 µM
- TGI [7]: > 6.68 µM
- GI50 [8]: 0.00236 µM
- TGI [8]: 3.21 µM
- GI50 [9]: < 0.00167 µM
- TGI [9]: > 16.7 µM

SMILES: O=C(Nc1cccc(Cl)c1)c1cc2cc(N=Nc3ccc(Br)cc3)ccc2oc1=O
- TGI [1]: > 100 µM
- TGI [2]: 52.9 µM
- TGI [3]: 77.7 µM
- TGI [4]: > 100 µM
- TGI [6]: > 100 µM
- TGI [7]: > 100 µM
- TGI [9]: > 100 µM

SMILES: O=C(/C=C\c1ccc(Cl)c(Cl)c1)c1ccccc1
- GI50 [10]: 5.46 µM
- TGI [10]: 29.1 µM
- GI50 [1]: 15.3 µM
- TGI [1]: 29.6 µM
- GI50 [2]: 7.37 µM
- TGI [2]: 21.5 µM
- GI50 [3]: 5.36 µM
- TGI [3]: 40.3 µM
- GI50 [5]: 13.9 µM
- TGI [5]: 30.7 µM
- GI50 [6]: 16.7 µM
- TGI [6]: 30.9 µM
- GI50 [7]: 1.91 µM
- TGI [7]: 3.89 µM
- GI50 [8]: 12.3 µM
- TGI [8]: 25.2 µM
- GI50 [9]: 7.65 µM
- TGI [9]: 20.5 µM
